Measurements published in ChEMBL document CHEMBL1201862, “PubChem BioAssay data set” (2004).
The source made the active and inactive calls.

How the values were obtained:
[1] = fluconazole-exposed Candida albicans growth modulators – fluorescence, retest, confirmation (AID 2467); format: functional, cell-based
BJ [2] = assay: cells; format: functional, cell-based; settings: Homo sapiens
cells [3] = format: functional, cell-based
INS1 = assay: INS-1E survival protection against cytokine death – cell-based, luminescence, retest, dose response (AID 449756); format: functional; settings: Rattus norvegicus;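 also: cell death triggered by IL-1 beta plus TNF-alpha plus IFN-gamma mixture; protective hits raise ATP signal compared with cytokine alone wells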
cells [4] = format: functional, cell-based; remark: listed apart in the source
BJ [5] = assay: BJ-TERT fibroblast viability loss – cell-based, RAS-independent, luminescence, dose response (AID 1933); format: functional; settings: Homo sapiens
[6] = NIH-3T3 fibroblast cytotoxicity, dose response, cytotoxicity control, cell-based, fluorescence, Alamar Blue, secondary assay (AID 2327); format: functional;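 also: NIH-3T3 mouse fibroblasts cultured with fluconazole at 8 µg/mL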
[7] = DRD fibroblast viability loss – cell-based, non-viral oncogenic, luminescence, dose response (AID 1934); format: functional; settings: Homo sapiens
[8] = target: T1, Microphthalmia-associated transcription factor (Homo sapiens, UniProt O75030); assay: reducers of TRPM1 reporter luminescence, concentration series – cell-based, SK-MEL-5, cherry-picked, set 3, MITF inhibitor project, dose response (AID 493073); format: functional;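 also: SK-MEL-5 melanoma cells with luciferase driven by the MITF target TRPM1 promoter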
T1 sequence (O75030 whole entry): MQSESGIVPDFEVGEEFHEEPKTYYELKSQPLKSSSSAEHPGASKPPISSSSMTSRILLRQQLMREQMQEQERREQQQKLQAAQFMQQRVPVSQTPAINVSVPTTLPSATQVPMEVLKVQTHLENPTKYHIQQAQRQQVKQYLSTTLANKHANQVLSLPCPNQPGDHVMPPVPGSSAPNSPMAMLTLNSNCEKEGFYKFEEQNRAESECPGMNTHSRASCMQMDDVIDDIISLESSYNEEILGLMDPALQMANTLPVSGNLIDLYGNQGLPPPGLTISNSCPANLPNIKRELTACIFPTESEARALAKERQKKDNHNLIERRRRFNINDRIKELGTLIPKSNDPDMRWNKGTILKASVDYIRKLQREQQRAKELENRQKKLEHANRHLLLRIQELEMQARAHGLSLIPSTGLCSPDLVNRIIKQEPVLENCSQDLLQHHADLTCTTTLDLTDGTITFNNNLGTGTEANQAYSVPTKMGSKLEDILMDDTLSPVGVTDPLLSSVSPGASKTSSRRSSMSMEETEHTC

BJ [9] = assay: BJ-TERT-LT-ST fibroblast viability loss – cell-based, RAS-independent, luminescence, dose response (AID 1935); format: functional; settings: Homo sapiens;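 also: BJ fibroblasts immortalized with TERT plus LT and ST oncogenes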
HEK293 [10] = assay: inhibition of NOD1-driven NF-kB reporter – cell-based, luminescence, uHTS, primary screen (AID 1578); format: functional; settings: Homo sapiens
HEK293 [11] = assay: cells; format: functional, cell-based; settings: Homo sapiens
HEK293 [12] = assay: cells; format: functional, cell-based; settings: Homo sapiens; remark: listed apart in the source
HEK293 [13] = assay: NOD2 signaling inhibitors in MDP-stimulated cells, cell-based, uHTS, luminescence (AID 2001); format: functional; settings: Homo sapiens
[14] = target: Nucleotide-binding oligomerization domain-containing protein 2 (Homo sapiens, UniProt Q9HC29); assay: inhibition of NOD2-driven NF-kB reporter – cell-based, luminescence, uHTS, HEK293 (AID 1566); format: functional
HEK293 [15] = assay: cells; format: functional, cell-based; settings: Homo sapiens; remark: listed apart in the source
Cytochrome P450 1A2 = target: T2, Cytochrome P450 1A2 (Homo sapiens, UniProt P05177);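 also: PubChem cytochrome P450 panel assay, CYP1A2 panel member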
T2 sequence (P05177 whole entry): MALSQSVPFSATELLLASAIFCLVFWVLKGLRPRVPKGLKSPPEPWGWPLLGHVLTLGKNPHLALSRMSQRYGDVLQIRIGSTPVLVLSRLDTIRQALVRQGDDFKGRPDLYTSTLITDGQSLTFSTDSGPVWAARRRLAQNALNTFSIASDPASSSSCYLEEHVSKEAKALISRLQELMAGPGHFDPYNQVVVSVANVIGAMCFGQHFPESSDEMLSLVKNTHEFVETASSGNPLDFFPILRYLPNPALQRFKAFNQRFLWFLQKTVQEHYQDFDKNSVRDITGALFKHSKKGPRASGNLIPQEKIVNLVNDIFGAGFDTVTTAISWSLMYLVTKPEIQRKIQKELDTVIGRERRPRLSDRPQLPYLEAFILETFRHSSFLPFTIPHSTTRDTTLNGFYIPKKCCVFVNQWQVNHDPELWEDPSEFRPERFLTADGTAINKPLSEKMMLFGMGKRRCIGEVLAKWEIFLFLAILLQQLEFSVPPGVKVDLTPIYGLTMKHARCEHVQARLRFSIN

[16] = target: ATP-dependent molecular chaperone HSP82 (Candida albicans (strain WO-1) (Yeast), UniProt C4YTQ8); assay: steroid-induced GRE reporter decrease in yeast – S. cerevisiae, luminescence, Hsp90 inhibitor project, dose response (AID 2400); format: functional, cell-based;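 also: beta-galactosidase luminescence from glucocorticoid response element reporter as proxy for Hsp90 function; inhibitor potency where signal loss means Hsp90 inhibition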
[17] = target: T3, Serine/threonine-protein phosphatase (Candida dubliniensis (strain CD36 / CBS 7987 / NCPF 3949 / NRRLY-17841) (Yeast), UniProt B9W6M3); assay: blockers of CaCl2-induced CDRE-lacZ signaling – S. cerevisiae, luminescence, secondary, dose response (AID 2388); format: functional, cell-based;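 also: yeast reporter cells carrying a calcineurin-responsive lacZ construct stimulated with calcium chloride; luminescent beta-galactosidase reporter signal in whole cells rather than isolated phosphatase activity; potency for inhibition where a drop in reporter signal means calcineurin blockade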
T3 sequence (B9W6M3 whole entry): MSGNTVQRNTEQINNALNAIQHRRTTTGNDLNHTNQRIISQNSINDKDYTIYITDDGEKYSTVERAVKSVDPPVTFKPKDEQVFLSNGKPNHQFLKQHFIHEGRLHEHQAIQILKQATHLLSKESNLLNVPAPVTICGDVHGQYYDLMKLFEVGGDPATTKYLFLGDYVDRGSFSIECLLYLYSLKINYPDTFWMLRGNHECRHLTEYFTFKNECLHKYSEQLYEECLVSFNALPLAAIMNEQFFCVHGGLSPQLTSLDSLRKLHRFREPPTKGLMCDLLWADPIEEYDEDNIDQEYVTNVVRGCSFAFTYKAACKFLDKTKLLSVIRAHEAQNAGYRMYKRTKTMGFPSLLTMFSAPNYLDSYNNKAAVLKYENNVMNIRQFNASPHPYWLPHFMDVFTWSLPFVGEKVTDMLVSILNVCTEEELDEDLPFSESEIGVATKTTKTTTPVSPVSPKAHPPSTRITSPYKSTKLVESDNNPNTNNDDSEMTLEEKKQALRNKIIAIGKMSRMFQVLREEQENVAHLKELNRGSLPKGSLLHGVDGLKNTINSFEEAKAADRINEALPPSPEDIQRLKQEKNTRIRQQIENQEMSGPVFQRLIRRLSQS

[18] = target: Dual specificity tyrosine-phosphorylation-regulated kinase 1A (Rattus norvegicus, UniProt Q63470); format: biochemical, Homo sapiens
[19] = target: DNA damage-inducible transcript 3 protein (Mus musculus, UniProt P35639); format: functional, Cricetulus griseus
[20] = viability of HCT116 lacking mutant beta-catenin – cell-based, human colon tumor, dose response (AID 1045); format: functional;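 also: HCT116 colon tumor cells with beta catenin knocked out; cells exposed to compound for 60 hours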
[21] = viability of PTEN-deleted HCT116 cells – cell-based, HCT116 PTEN knockout, dose response (AID 1047); format: functional;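 also: HCT116 colon tumor cells with PTEN knocked out; cells exposed to compound for 60 hours before readout; potency for loss of cell viability measured by luminescence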
[22] = system: Streptococcus sp. 'group A'; assay: Streptococcus pyogenes SK(-)GAS viability under kanamycin – luminescence, BacTiterGlo, confirmation, counter-screen for streptokinase expression inhibitor project, dose response (AID 1900); format: functional, organism-based
Streptokinase A = target: T4, Streptokinase A (Streptococcus pyogenes serotype M1, UniProt P10520); assay: viability-normalized secreted streptokinase activity reduction – plasminogen activation absorbance, OD405, dose response (AID 1914); format: functional, Streptococcus pyogenes M1 GAS;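 also: secreted streptokinase activity via plasminogen activation per viability signal from cell pellet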
T4 sequence (P10520 whole entry): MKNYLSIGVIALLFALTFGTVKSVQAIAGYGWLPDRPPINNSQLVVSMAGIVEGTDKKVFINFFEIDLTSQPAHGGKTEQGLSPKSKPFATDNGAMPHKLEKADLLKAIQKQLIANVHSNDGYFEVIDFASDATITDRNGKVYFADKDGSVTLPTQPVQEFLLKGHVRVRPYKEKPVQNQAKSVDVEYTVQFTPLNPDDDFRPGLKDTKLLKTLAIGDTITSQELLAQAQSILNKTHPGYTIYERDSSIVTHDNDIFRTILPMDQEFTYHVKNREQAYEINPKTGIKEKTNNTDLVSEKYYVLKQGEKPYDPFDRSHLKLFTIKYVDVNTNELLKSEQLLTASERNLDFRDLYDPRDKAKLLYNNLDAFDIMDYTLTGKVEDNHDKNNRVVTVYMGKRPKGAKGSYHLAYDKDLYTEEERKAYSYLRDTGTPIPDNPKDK

Streptococcus = assay: GAS UMAA2166 growth inhibition – luminescence, BacTiterGlo, counter-screen for streptokinase expression inhibitor project, dose response (AID 1915); format: functional, organism-based;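 also: potency for reduction of bacterial viability or growth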
Cytochrome P450 3A4 = Cytochrome P450 3A4 (Homo sapiens, UniProt P08684);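 also: CYP3A4 tested as one member of a cytochrome P450 panel screen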
Cytochrome P450 2C19 = Cytochrome P450 2C19 (Homo sapiens, UniProt P33261); assay: Cytochrome panel assay with activity outcomes. Panel member name: p450-cyp2c19 Compounds with AC50 equal or less than 10 uM are considered active; format: functional
Chain of Cytochrome P450 2C19 (P33261 whole entry): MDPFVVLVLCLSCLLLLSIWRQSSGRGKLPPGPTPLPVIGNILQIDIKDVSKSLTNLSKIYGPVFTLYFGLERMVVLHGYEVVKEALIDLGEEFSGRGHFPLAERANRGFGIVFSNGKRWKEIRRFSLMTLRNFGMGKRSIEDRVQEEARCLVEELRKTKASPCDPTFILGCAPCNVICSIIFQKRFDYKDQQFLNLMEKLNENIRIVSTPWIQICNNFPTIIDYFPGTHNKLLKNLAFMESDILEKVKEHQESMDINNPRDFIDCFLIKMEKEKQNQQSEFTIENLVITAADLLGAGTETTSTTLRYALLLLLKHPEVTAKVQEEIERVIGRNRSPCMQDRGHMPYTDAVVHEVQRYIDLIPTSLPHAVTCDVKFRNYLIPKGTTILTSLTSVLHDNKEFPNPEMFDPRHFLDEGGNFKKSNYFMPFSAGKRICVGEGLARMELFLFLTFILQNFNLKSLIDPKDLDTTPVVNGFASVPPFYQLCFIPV

Chain of Nucleotide-binding oligomerization domain-containing protein 2 (Q9HC29 whole entry, the tested form may be a part): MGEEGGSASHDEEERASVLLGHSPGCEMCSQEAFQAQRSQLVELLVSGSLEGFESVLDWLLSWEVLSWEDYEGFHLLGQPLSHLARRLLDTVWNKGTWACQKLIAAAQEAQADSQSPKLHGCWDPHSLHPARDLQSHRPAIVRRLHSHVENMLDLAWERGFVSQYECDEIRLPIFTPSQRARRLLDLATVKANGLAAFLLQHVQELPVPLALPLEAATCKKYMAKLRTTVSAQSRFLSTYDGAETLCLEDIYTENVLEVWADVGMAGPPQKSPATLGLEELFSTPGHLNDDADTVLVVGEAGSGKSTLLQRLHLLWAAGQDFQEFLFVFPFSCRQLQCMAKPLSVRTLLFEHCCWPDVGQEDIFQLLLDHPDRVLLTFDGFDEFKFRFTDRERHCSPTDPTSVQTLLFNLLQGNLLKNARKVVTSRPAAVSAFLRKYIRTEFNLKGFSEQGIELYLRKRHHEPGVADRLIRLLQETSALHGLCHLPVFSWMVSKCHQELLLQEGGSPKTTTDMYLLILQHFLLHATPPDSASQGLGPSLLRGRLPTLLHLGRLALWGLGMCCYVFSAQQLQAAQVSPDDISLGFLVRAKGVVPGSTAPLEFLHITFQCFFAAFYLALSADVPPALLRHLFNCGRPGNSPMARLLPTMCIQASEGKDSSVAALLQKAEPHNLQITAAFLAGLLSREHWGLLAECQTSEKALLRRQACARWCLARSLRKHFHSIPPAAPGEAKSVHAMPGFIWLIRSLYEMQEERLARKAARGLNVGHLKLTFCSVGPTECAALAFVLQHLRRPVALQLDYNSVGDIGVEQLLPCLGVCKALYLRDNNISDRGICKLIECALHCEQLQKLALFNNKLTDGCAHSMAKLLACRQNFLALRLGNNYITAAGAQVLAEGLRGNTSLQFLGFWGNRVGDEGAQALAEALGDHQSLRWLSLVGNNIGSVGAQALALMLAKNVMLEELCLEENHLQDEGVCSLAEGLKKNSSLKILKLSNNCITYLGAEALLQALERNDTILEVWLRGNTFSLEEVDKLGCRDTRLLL
Chain of Cytochrome P450 3A4 (P08684 whole entry): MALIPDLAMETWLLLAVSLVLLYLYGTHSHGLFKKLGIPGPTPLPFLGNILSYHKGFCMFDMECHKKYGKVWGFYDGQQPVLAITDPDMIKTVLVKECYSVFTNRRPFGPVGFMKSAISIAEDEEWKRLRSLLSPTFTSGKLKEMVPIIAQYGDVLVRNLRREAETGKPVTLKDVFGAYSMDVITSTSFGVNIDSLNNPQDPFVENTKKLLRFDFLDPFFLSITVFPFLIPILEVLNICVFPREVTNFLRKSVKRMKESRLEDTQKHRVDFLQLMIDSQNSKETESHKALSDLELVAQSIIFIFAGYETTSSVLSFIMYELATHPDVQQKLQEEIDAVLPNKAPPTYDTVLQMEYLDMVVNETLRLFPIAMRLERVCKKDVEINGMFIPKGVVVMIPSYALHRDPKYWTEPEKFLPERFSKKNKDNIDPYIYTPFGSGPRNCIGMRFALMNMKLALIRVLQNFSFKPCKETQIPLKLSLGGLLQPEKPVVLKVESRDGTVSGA
Chain of ATP-dependent molecular chaperone HSP82 (C4YTQ8 whole entry): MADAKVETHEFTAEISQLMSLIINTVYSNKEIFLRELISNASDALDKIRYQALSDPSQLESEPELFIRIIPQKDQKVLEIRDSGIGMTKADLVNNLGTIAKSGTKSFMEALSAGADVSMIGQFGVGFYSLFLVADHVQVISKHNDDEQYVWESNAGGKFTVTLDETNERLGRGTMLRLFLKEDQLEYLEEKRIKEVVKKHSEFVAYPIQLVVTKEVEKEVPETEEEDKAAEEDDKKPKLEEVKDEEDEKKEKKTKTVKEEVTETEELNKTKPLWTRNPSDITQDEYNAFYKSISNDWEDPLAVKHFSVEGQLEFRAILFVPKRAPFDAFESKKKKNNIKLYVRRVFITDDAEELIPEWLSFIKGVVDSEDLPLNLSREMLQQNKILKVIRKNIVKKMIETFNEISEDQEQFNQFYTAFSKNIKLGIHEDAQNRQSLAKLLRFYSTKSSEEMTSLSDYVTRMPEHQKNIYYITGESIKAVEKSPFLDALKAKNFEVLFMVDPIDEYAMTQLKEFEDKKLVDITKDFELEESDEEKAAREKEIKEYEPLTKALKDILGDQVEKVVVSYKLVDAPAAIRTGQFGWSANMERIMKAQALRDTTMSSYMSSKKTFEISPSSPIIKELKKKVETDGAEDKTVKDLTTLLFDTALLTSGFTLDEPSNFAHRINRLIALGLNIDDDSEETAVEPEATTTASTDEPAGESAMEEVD
Chain of DNA damage-inducible transcript 3 protein (P35639 whole entry): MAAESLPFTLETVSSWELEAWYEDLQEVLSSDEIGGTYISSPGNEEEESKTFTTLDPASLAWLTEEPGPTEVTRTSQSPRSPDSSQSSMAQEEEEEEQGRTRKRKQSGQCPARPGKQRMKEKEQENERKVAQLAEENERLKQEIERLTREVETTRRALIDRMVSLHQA

COc1ccc(O)c(/C=N/NC(=O)c2ccc(CSc3nc(C)cc(C)n3)cc2)c1
EC50 [1]: > 38 µM (not active) | EC50 (BJ [2]): 17.5 µM (inconclusive) | EC50 (cells [3]): > 350 µM (not active) | AC50 (INS1): 4.6 µM (active) | EC50 (cells [4]): 24 µM (active) | EC50 (BJ [5]): 20.6 µM (active) | EC50 [6]: > 150 µM (inactive) | EC50 [7]: 27.7 µM (active) | AC50 [8]: 9.31 µM (active) | EC50 (BJ [9]): > 75 µM (not active)

CCN(C(=O)c1cnc(N2CCN(c3ncccn3)CC2)c2ccccc12)c1cccc(Cl)c1
EC50 (HEK293 [10]): 5.39 µM (active) | IC50 (HEK293 [11]): 8.34 µM (active) | IC50 (HEK293 [12]): 3.5 µM (active) | IC50 (HEK293 [13]): 4.17 µM (active) | EC50 [14]: 7.19 µM (active) | IC50 (HEK293 [15]): > 20 µM (inactive) | AC50 (Cytochrome P450 1A2): 15.8 µM (inconclusive)

O=C(N/N=C/c1cc([N+](=O)[O-])ccc1O)c1ccc(COc2ccc3c(c2)CCC3)o1
EC50 [1]: 1.19 µM (active) | EC50 [16]: 28.3 µM (active) | EC50 [17]: > 180 µM (inactive) | EC50 [6]: 11.6 µM (active)

O=C(Nc1ccc(Cl)cc1)Nc1ccc2c(c1)N1CCN=C1S2
AC50 [18]: 1.07 µM (active)

CSc1nc(O)c2cnn(-c3ccc(C)c(C)c3)c2n1
Absolute IC50 (CHOP) [19]: 10 µM | EC50 [20]: 27.6 µM (active) | EC50 [21]: 26.2 µM (active)

CN(C)C=O.N#Cc1ccc(Cl)cc1NC(=O)CSc1nc(O)c2c(C(F)(F)F)cc(-c3cccs3)nc2n1
EC50 (HEK293 [10]): 5.63 µM (active) | IC50 (HEK293 [11]): > 20 µM (inactive) | IC50 (HEK293 [12]): 9.55 µM (active) | IC50 (HEK293 [13]): 6.22 µM (inactive) | EC50 [22]: 7.34 µM (active) | EC50 [14]: 8.42 µM (active) | EC50 (Streptokinase A): > 150 µM (not active) | IC50 (HEK293 [15]): > 20 µM (inactive) | EC50 (Streptococcus): > 150 µM (not active)

CCOC(=O)N1CCN(C(=O)c2ccc3c(=O)n(-c4ccc(OC)cc4)c(=S)[nH]c3c2)CC1
AC50 (Cytochrome P450 3A4): inconclusive | AC50 (Cytochrome P450 1A2): 39.8 µM (inconclusive)

O=C(Nc1nnc(COc2ccc(Cl)cc2)s1)c1ccc([N+](=O)[O-])cc1
AC50 (Cytochrome P450 2C19): inconclusive | AC50 (Cytochrome P450 3A4): inconclusive
